# In patent publication US8957063B2, “Amine and ether compounds which modulate the CB2 receptor” (priority 2008, dated 2015):
# Molecular target: T1, human CB2R (Homo sapiens, UniProt P34972)
# T1 construct: host or cells: CHO cells
# Assay: CB2R mediated modulation of cAMP synthesis
# Assay type: cell-based
# Conditions: not given
# Description: B. CB2R Mediated Modulation of cAMP Synthesis:
# Compounds of the invention were evaluated for their CB2 agonist or inverse agonistic activity in accordance with the following experimental method.
# CHO cells expressing human CB2R (Euroscreen) were plated at a density of 5000 cells per well in 384 well plates and incubated overnight at 37° C. After removing the media, the cells were treated with test compounds diluted in stimulation buffer containing 1 mM IBMX, 0.25% BSA and 10 uM Forskolin. The assay was incubated for 30 minutes at 37° C. Cells were lysed and the cAMP concentration was measured using DiscoverX-XS cAMP kit, following the manufacturer's protocol. In this setting, agonists will decrease forskolin induced production of cAMP while inverse agonists will further increase forskolin induced production of cAMP. EC50 of agonists were calculated as follows. The maximal amount of cAMP produced by forskolin compared to the level of cAMP inhibited by 1 uM CP55940 is defined as 100%. The EC50 value of each test compound was determined as the concentration at which 50% of the forskolin-stimulated cAMP synthesis was inhibited. Data was analyzed using a four-parameter logistic model. (Model 205 of XLfit 4.0).
# T1 sequence (P34972 whole entry): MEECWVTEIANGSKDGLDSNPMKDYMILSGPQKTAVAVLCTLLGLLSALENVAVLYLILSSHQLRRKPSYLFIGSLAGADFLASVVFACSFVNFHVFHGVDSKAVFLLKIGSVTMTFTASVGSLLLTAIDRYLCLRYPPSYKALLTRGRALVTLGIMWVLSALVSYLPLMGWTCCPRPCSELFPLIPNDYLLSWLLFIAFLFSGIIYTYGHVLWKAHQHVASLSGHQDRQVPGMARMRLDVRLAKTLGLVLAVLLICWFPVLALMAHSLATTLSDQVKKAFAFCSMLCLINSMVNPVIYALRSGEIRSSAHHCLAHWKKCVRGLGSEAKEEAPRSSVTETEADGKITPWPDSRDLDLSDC
row,Structure (SMILES),EC50
1,"CC(C)(Oc1ccc(Cl)cc1)C(=O)Nc1cc(C(C)(C)C)on1 [Example 1, N-(5-tert-Butyl-isoxazol-3-yl)-2-(4-chloro-phenoxy)-2-methyl-propionamide]",2.4 nM
2,"CC(C)(OCC1CCOCC1)C(=O)Nc1cc(C(C)(C)C)no1 [Example 2, N-(3-tert-Butyl-isoxazol-5-yl)-2-methyl-2-(tetrahydro-pyran-4-ylmethoxy)-propionamide]",8.1 nM
3,"CC(C)(OCC1CCOCC1)C(=O)Nc1cc(C(C)(C)C)on1 [Example 3, N-(5-tert-Butyl-isoxazol-3-yl)-2-methyl-2-(tetrahydro-pyran-4-ylmethoxy)-propionamide]",50 nM
4,"CC(C)(OC1CCOCC1)C(=O)Nc1cc(C(C)(C)C)no1 [Example 4, N-(3-tert-Butyl-isoxazol-5-yl)-2-methyl-2-(tetrahydro-pyran-4-yloxy)-propionamide]",107 nM
5,"CC(C)(OC1CCOCC1)C(=O)Nc1cc(C(C)(C)C)on1 [Example 5, N-(5-tert-Butyl-isoxazol-3-yl)-2-methyl-2-(tetrahydro-pyran-4-yloxy)-propionamide]",123 nM
6,"CC(C)(OCC1CCOCC1)C(=O)Nc1nc(-c2ccccc2)n[nH]1 [Example 6, 2-Methyl-N-(5-phenyl-2H-1,2,4-triazol-3-yl)-2-(tetrahydro-pyran-4-ylmethoxy)-propionamide]",51 nM
7,"CC(C)(OC1CCOCC1)C(=O)Nc1nc(-c2ccccc2)n[nH]1 [Example 7, 2-Methyl-N-(5-phenyl-2H-1,2,4-triazol-3-yl)-2-(tetrahydro-pyran-4-yloxy)-propionamide]",235 nM
8,"CC(C)(Oc1ccc(C(F)(F)F)cn1)C(=O)Nc1cc(C(C)(C)C)no1 [Example 8, N-(3-tert-Butyl-isoxazol-5-yl)-2-methyl-2-(5-trifluoromethyl-pyridin-2-yloxy)-propionamide]",0.1 nM
9,"COc1ccc(NC(C)(C)C(=O)Nc2cc(C(C)(C)C)on2)cc1 [Example 9, N-(5-tert-Butyl-isoxazol-3-yl)-2-(4-methoxy-phenylamino)-2-methyl-propionamide]",8.7 nM
10,"CC(C)NC(C)(C)C(=O)Nc1cc(C(C)(C)C)on1 [Example 10, N-(5-tert-Butyl-isoxazol-3-yl)-2-isopropylamino-2-methyl-propionamide]",100 nM
11,"CCC(C)NC(C)(C)C(=O)Nc1cc(C(C)(C)C)on1 (centres unmarked) [Example 11, 2-sec-Butylamino-N-(5-tert-butyl-isoxazol-3-yl)-2-methyl-propionamide]",177 nM
12,"CC(C)N(C)C(C)(C)C(=O)Nc1cc(C(C)(C)C)on1 [Example 12, N-(5-tert-Butyl-isoxazol-3-yl)-2-(isopropyl-methyl-amino)-2-methyl-propionamide]",8.4 nM
13,"CC(C)(C)c1cc(NC(=O)C(C)(C)N2CCOCC2)no1 [Example 13, N-(5-tert-Butyl-isoxazol-3-yl)-2-morpholin-4-yl-isobutyramide]",45 nM
14,"CC(C)(NC1CCCCC1)C(=O)Nc1cc(C(C)(C)C)on1 [Example 14, N-(5-tert-Butyl-isoxazol-3-yl)-2-cyclohexylamino-2-methyl-propionamide]",9.5 nM
15,"CCCCNC(C)(C)C(=O)Nc1cc(C(C)(C)C)on1 [Example 17, 2-Butylamino-N-(5-tert-butyl-isoxazol-3-yl)-2-methyl-propionamide]",96 nM
16,"CC1CCCN(C(C)(C)C(=O)Nc2cc(C(C)(C)C)on2)C1 (centres unmarked) [Example 19, N-(5-tert-Butyl-isoxazol-3-yl)-2-(3-methyl-piperidin-1-yl)-isobutyramide]",0.34 nM
17,"CC1CCCN1C(C)(C)C(=O)Nc1cc(C(C)(C)C)on1 (centres unmarked) [Example 20, N-(5-tert-Butyl-isoxazol-3-yl)-2-(2-methyl-pyrrolidin-1-yl)-isobutyramide]",24 nM
18,"CC1CCN(C(C)(C)C(=O)Nc2cc(C(C)(C)C)on2)CC1 [Example 21, N-(5-tert-Butyl-isoxazol-3-yl)-2-(4-methyl-piperidin-1-yl)-isobutyramide]",2.6 nM
19,"CC(C)(C)c1cc(NC(=O)C(C)(C)N2CCSCC2)no1 [Example 22, N-(5-tert-Butyl-isoxazol-3-yl)-2-thiomorpholin-4-yl-isobutyramide]",9.9 nM
20,"CC(C)(NC1CC1)C(=O)Nc1cc(C(C)(C)C)on1 [Example 23, N-(5-tert-Butyl-isoxazol-3-yl)-2-cyclopropylamino-2-methyl-propionamide]",235 nM

row,Structure (SMILES),EC50
1,"CC1CCCCN1C(C)(C)C(=O)Nc1cc(C(C)(C)C)on1 (centres unmarked) [Example 24, N-(5-tert-Butyl-isoxazol-3-yl)-2-(2-methyl-piperidin-1-yl)-isobutyramide]",1.2 nM
2,"COC1CCN(C(C)(C)C(=O)Nc2cc(C(C)(C)C)on2)CC1 [Example 25, N-(5-tert-Butyl-isoxazol-3-yl)-2-(4-methoxy-piperidin-1-yl)-isobutyramide]",0.21 nM
3,"CC(C)(C)c1cc(NC(=O)C(C)(C)N2CCCCC2)no1 [Example 26, N-(5-tert-Butyl-isoxazol-3-yl)-2-piperidin-1-yl-isobutyramide]",0.55 nM
4,"CC(C)(C)c1cc(NC(=O)C(C)(C)N2CCCC2)no1 [Example 27, N-(5-tert-Butyl-isoxazol-3-yl)-2-pyrrolidin-1-yl-isobutyramide]",23 nM
5,"CC(C)(C)c1cc(NC(=O)C(C)(C)N2CCC(F)(F)CC2)no1 [Example 28, N-(5-tert-Butyl-isoxazol-3-yl)-2-(4,4-difluoro-piperidin-1-yl)-isobutyramide]",24 nM
6,"CC(C)(C(=O)Nc1ccc(C(F)(F)F)cn1)N1CCCCC1 [Example 32, 2-Piperidin-1-yl-N-(5-trifluoromethyl-pyridin-2-yl)-isobutyramide]",127 nM
7,"CC(C)(C)c1cc(NC(=O)C(C)(C)n2ccc3cc(Cl)ccc32)no1 [Example 35, N-(5-tert-Butyl-isoxazol-3-yl)-2-(5-chloro-indol-1-yl)-isobutyramide]",0.22 nM
8,"CC(C)(C)c1cc(NC(=O)C(C)(C)N2CCC3(CCCCC3)C2)on1 [Example 36, 2-(2-Aza-spiro[4.5]dec-2-yl)-N-(3-tert-butyl-isoxazol-5-yl)-isobutyramide]",0.45 nM
9,CC(C)(NCC1CCOCC1)C(=O)Nc1cc(C(C)(C)C)no1 [Example 37],14 nM
10,"CC(C)(NCC1CCOCC1)C(=O)Nc1cc(C(C)(C)C)on1 [Example 38, N-(5-tert-Butyl-isoxazol-3-yl)-2-methyl-2-[(tetrahydro-pyran-4-ylmethyl)-amino]-propionamide]",125 nM
11,"CC(C)(NC1CCOCC1)C(=O)Nc1cc(C(C)(C)C)no1 [Example 39, N-(3-tert-Butyl-isoxazol-5-yl)-2-methyl-2-(tetrahydro-pyran-4-ylamino)-propionamide]",29 nM
12,"CC(C)(NC1CCOCC1)C(=O)Nc1cc(C(C)(C)C)on1 [Example 40, N-(5-tert-Butyl-isoxazol-3-yl)-2-methyl-2-(tetrahydro-pyran-4-ylamino)-propionamide]",35 nM
13,"CC(C)(NCC1CCOCC1)C(=O)Nc1nc(-c2ccccc2)n[nH]1 [Example 41, 2-Methyl-N-(5-phenyl-2H-1,2,4-triazol-3-yl)-2-[(tetrahydro-pyran-4-ylmethyl)-amino]-propionamide]",98 nM
14,"CC(C)(NC1CCOCC1)C(=O)Nc1nc(-c2ccccc2)n[nH]1 [Example 42, 2-Methyl-N-(5-phenyl-2H-1,2,4-triazol-3-yl)-2-(tetrahydro-pyran-4-ylamino)-propionamide]",260 nM
15,"CC(C)(Nc1ccc(C(F)(F)F)cc1)C(=O)Nc1cc(C(C)(C)C)no1 [Example 43, N-(3-tert-Butyl-isoxazol-5-yl)-2-methyl-2-(4-trifluoromethyl-phenylamino)-propionamide]",1.1 nM
16,"CC(C)(Nc1ccc(C(F)(F)F)cn1)C(=O)Nc1cc(C(C)(C)C)no1 [Example 46, N-(3-tert-Butyl-isoxazol-5-yl)-2-methyl-2-(5-trifluoromethyl-pyridin-2-ylamino)-propionamide]",0.78 nM
17,"CC(C)(Nc1ccc(C(F)(F)F)cn1)C(=O)Nc1cc(C(C)(C)C)on1 [Example 47, N-(5-tert-Butyl-isoxazol-3-yl)-2-methyl-2-(5-trifluoromethyl-pyridin-2-ylamino)-propionamide]",20 nM
18,"CN(C(C)(C)C(=O)Nc1cc(C(C)(C)C)on1)S(=O)(=O)c1ccc(Cl)cc1 [Example 48, N-(5-tert-Butyl-isoxazol-3-yl)-2-[(4-chloro-benzenesulfonyl)-methyl-amino]-2-methyl-propionamide]",0.36 nM
19,"CN(C(C)(C)C(=O)Nc1cc(C(C)(C)C)on1)S(=O)(=O)c1ccc(F)cc1 [Example 49, N-(5-tert-Butyl-isoxazol-3-yl)-2-[(4-fluoro-benzenesulfonyl)-methyl-amino]-2-methyl-propionamide]",0.13 nM
20,"CN(C(=O)c1ccc(Cl)cc1)C(C)(C)C(=O)Nc1cc(C(C)(C)C)on1 [Example 50, N-[1-(5-tert-Butyl-isoxazol-3-ylcarbamoyl)-1-methyl-ethyl]-4-chloro-N-methyl-benzamide]",124 nM

# Same assay, conditions: CHO cells expressing human CB2R; concentration at which 50% of the forskolin-stimulated cAMP synthesis was inhibited; 100% defined by 1 uM CP55940; read-out: CB2 EC50
row,Structure (SMILES),EC50
1,"CC(C)(NC1CCCCC1)C(=O)Nc1ccc(C(F)(F)F)cn1 [Example 29, 2-Cyclohexylamino-2-methyl-N-(5-trifluoromethyl-pyridin-2-yl)-propionamide]",469 nM
